Values joined by “and” are separate entries in the source; they are usually repeats but may differ in a detail not shown here. Equal entries are not always repeated.
Key:
[1] = target: T1, 18 kD Translocator protein (TSPO) (Mus musculus, UniProt P50637); test: Small animal PET brain uptake (SUV) and test-retest, mice; type: in vivo, C57BL/6J mice; details: for ICC of SUV / TRV of SUV: Mice, SUV 57–63 min, 7-day interval
T1 construct: from tissue; host or cells: brain of living healthy male C57BL/6J mice (in vivo PET)
Method: (§1) The study was divided in two parts. In the first part arterial sampling was performed in four rats to allow for quantification of [^11C]PBR28 binding and comparison with the SUV. In the second part four rats and four mice were used to determine the test-retest variability of the SUV, with a 7-day interval between the scans.
(§2) The animals were anesthetized with isoflurane (induction 4–5% mixed with oxygen and maintenance 1.5–2% mixed with air/oxygen (50/50)) at a flow rate of 1 L/min and a cannula was inserted into the tail vein for the injection of [^11C]PBR28. After the cannulation, the rats were positioned into the nanoScan PET/MRI or nanoScan PET/CT (Mediso Ltd., Budapest, Hungary) in a transaxial position with their heads in the centre of the field of view. A bolus injection of [^11C]PBR28 was given via the canula in the tail vein at start of the PET measurement. The injection was followed by a saline flush. An emission scan of 63 minutes was acquired for all animals. The average injected radioactivity was 23 ± 5 MBq for the rats and 9.9 ± 1.6 MBq for the mice. The injected mass was 0.05 ± 0.03 μg (n = 8) in rats and 0.011 ± 0.011 μg (n = 8) in mice.
(§3) The PET data was acquired in list mode and was reconstructed into 25 timeframes (4x10 s, 4x20 s, 4x60 s, 7x180 s, 6x360 s) with MLEM reconstruction (20 iterations). Image data were not corrected for attenuation or scatter. For each animal a T1-weighted MRI scan (Isotropic FSE sequence, TR/TE: 2000/84.1) was made for anatomical reference.
(§4) The reconstructed dynamic PET measurements were manually aligned with the corresponding MRI scans. The MRI and PET scans were then normalized to the rat or mice brain MRI template available in PMOD (PMOD 3.2 Zurich, Switzerland). Eight regions of interest were defined using the available template in PMOD, i.e. the striatum, hippocampus, hypothalamus, midbrain, thalamus, cerebral cortex, brainstem and cerebellum. Time-activity curves were generated for each region of interest. For all animals the regional brain uptake values were expressed as SUV and were calculated for 57–63 minute after injection, i.e. the last time-frame. The time used for calculating the SUV was based on the tissue-to-plasma ratio obtained from the first part of the study. From 15–50 minutes the tissue-to-plasma ratio is declining, and the estimated equilibrium state is reached at 50–60 minutes after injection. However, it can be beneficial for future studies to use a shorter scan time, i.e. to allow for scanning of more animals per batch of [^11C]PBR28 and to improve counting statistics. The SUV was therefore also calculated for the time-frame of 39–45 minute after injection, In both cases the SUV was calculated according to Eq 1, and it was assumed that 1 cm^3 of brain tissue equals 1 g.
(§5) SUV=tissue activity concentration(Bq/cm3)/injected dose(Bq)/body weight(g) (1)
(§6) For the test-retest study the test-retest variability was calculated using Eq 2.
(§7) TRV=|test value−retest value|/(test value+retest value)/2*100 (2)
(§8) Additionally the […] correlation coefficient (ICC) was calculated as an index of the reliability of the test-retest measurement using Eq 3, where MS = mean sum of squares, BS = between-subjects, WS = within-subjects, and df = degrees of freedom. It combines the information of the difference between and within the test and retest scan. The ICC values were interpreted as follows: 0–0.2 indicated slight agreement, 0.3–0.4 indicated fair agreement, 0.5–0.6 indicated moderate agreement, 0.7–0.8 indicated substantial agreement, and >0.8 indicated almost perfect agreement between the test and retest measures.
(§9) ICC=MSBS−MSWS/MSBS+(dfWS*MSWS) (3)

[2] = target: T2, 18 kD Translocator protein (TSPO) (Rattus norvegicus, UniProt P16257); test: Dynamic PET with arterial sampling; VT by 2-TCM and Logan graphical analysis, compared with SUV; type: in vivo, Wistar rats; details: for VT 2-TCM / VT Logan: n = 3; for VT Logan: t* = 21 min
T2 construct: from tissue; host or cells: brain of living healthy male Wistar rats (in vivo PET)
Method: as §1, §2, §3
(§10) Arterial blood sampling was performed during the PET scan in the first group of four rats. In addition to the insertion of the cannula in the tail vein, another cannula was inserted into the femoral artery. For the rats, sixteen arterial blood samples of 0.1 ml were taken for measurement of radioactivity in plasma and blood using a gamma counter. Four samples of 0.5 ml blood were taken for radiometabolite analysis at 4, 20, 40 and 60 minutes after injection.
as §4, §5
For the first groups, the arterial samples and percentage of metabolites were used to determine the metabolite corrected plasma-input function. Two-tissue compartment modelling (2-TCM) and Logan graphical analysis were used to calculate the volume of distribution (VT), using the metabolite corrected plasma curve as input. For the Logan analysis data was fitted from 21 minutes after injection (t* = 21 min).

[3] = Arterial blood and plasma radioactivity (gamma counter); type: in vivo, Wistar rats; details: rats; for plasma/blood ratio of radioactivity: average
Method: as §10

[4] = target: T2, 18 kD Translocator protein (TSPO); test: Small animal PET brain uptake (SUV) and test-retest, rats; type: in vivo, Wistar rats; details: for ICC of SUV / TRV of SUV: Rats, SUV 57–63 min, 7-day interval
Method: as §1, §2, §3, §4, §5, §6, §7, §8, §9

TSPO = details: cited from earlier work
[5] = Radiometabolite analysis of plasma by radio-HPLC; type: in vivo, Wistar rats
Method: as §10
To determine the percentages of radioactivity in plasma that corresponded to unchanged [^11C]PBR28 and its radioactive metabolites, reversed-phase HPLC was used. Plasma obtained after centrifugation of 0.5 ml blood at 2,000 g for 2–4 min was mixed with acetonitrile (0.35 ml) and centrifuged for 4 min. The acetonitrile extraction ratio was 93.5% ± 1.8% at 4 min, 87.8% ± 0.5% at 20 min, 85.2% ± 1.1% at 40 min and 78.9% ± 2.4% at 60 min. The supernatant was mixed with 2 ml of water and analysed using radio-HPLC. The radio-HPLC system used consisted of an interface module (D-7000; Hitachi: Tokyo, Japan), a L-7100 pump (Hitachi), an injector (model 7125, with a 5.0-mL loop; Rheodyne: Cotati, USA) equipped with a μ-Bondapak C18 column (300 x 7.8 mm, […]; Waters: New England, USA), and an ultraviolet absorption detector (L-7400, 254 nm; Hitachi) in series with a 150TR; Packard (housed in a shield of 50 mm thick lead) equipped with a 550 μL flow cell. Acetonitrile (A) and ammonium formate (100 mM) (B) were used as the mobile phase at 6.0 mL/min, according to the following gradient: 0–4 min (A/B), 40:60 → 80:20 v/v; 4.1–6 min(A/B), 80:20 v/v; 8 min (A/B), 40:60 v/v. Peaks for radioactive compounds eluting from the column were integrated and their areas were expressed as a percentage of the sum of the areas of all detected radioactive compounds (decay-corrected to the time of injection on the HPLC).

[6] = rats, eight brain regions, SUV 57–63 min
[7] = rats, 4 minutes after injection

With `CC(=O)N(Cc1ccccc1O[11CH3])c1ccc(Oc2ccccc2)nc1` [[^11C]PBR28, N-acetyl-N-(2-[^11C]methoxybenzyl)-2-phenoxy-5-pyridinamine] the “ICC of SUV” value ([1]; Brainstem) was 0.31, the “TRV of SUV” value ([1]; Brainstem) was 13.2 and the “ICC of SUV” value ([1]; Cerebellum) was 0.29. The “TRV of SUV” value ([1]; Cerebellum) was 13.7, the “TRV of SUV” value ([1]; Cerebral cortex) was 13.4 and the “ICC of SUV” value ([1]; Hippocampus) was 0.32. For the same compound, the “TRV of SUV” value ([1]; Hippocampus) was 6.9 ± 4.7 and 6.9, the “ICC of SUV” value ([1]; Hypothalamus) was 0.01 and the “TRV of SUV” value ([1]; Hypothalamus) was 23.0. For the same compound, the “ICC of SUV” value ([1]; Midbrain) was 0.02, the “TRV of SUV” value ([1]; Midbrain) was 15.1 and the “TRV of SUV” value ([1]; Striatum) was 23.6 ± 15.6 and 23.6. For the same compound, the “ICC of SUV” value ([1]; Thalamus) was 0.71, the “TRV of SUV” value ([1]; Thalamus) was 7.6 and the “time of maximum total brain uptake (SUV) after injection” value ([1]; mice, i.v. bolus) was “around 1 min”. For the same compound, the “VT 2-TCM” value ([2]; Brainstem, rats) was 56.7, the “VT Logan” value ([2]; Brainstem, rats) was 49.7 and the “VT 2-TCM” value ([2]; Cerebellum, rats) was 63.6. The “VT Logan” value ([2]; Cerebellum, rats) was 54.0, the “VT 2-TCM” value ([2]; Cerebral cortex, rats) was 45.3 and the “VT Logan” value ([2]; Cerebral cortex, rats) was 41.5. For the same compound, the “VT 2-TCM” value ([2]; Hippocampus, rats) was 41.1, the “VT Logan” value ([2]; Hippocampus, rats) was 38.7 and the “VT 2-TCM” value ([2]; Hypothalamus, rats) was 58.3. For the same compound, the “VT Logan” value ([2]; Hypothalamus, rats) was 51.3, the “VT 2-TCM” value ([2]; Midbrain, rats) was 40.9 and the “VT Logan” value ([2]; Midbrain, rats) was 36.2. The “VT 2-TCM” value ([2]; Striatum, rats) was 37.4, the “VT Logan” value ([2]; Striatum, rats) was 34.5 and the “VT 2-TCM” value ([2]; Thalamus, rats) was 35.8. For the same compound, the “VT Logan” value ([2]; Thalamus, rats) was 34.2, the “SUV of sampled rats higher than SUV of non-sampled rats” value ([2]; data not shown) was “about 30%” and the “total (whole) brain VT, Logan analysis” value ([2]; rats, average) was 42.9 ± 1.7 and 43.1. For the same compound, the “total brain VT, 2-TCM” value ([2]; rats, average) was 47.3, the “correlation (r^2) between average VT (2-TCM) and average SUV” value [2, 6] was 0.92 and the “correlation (r^2) between average VT (Logan) and average SUV” value [2, 6] was 0.94. For the same compound, the “plasma/blood ratio of radioactivity” value ([3]; 20 seconds after injection) was 0.2, the “plasma/blood ratio of radioactivity” value ([3]; 60 minutes after injection) was 1.0 and the “time of peak uptake in blood and plasma after injection” value ([3]; arterial samples) was “around 20 seconds”. For the same compound, the “ICC of SUV” value ([4]; Brainstem) was 0.58, the “TRV of SUV” value ([4]; Brainstem) was 17.7 and the “ICC of SUV” value ([4]; Cerebellum) was 0.72. The “TRV of SUV” value ([4]; Cerebellum) was 11.5, the “ICC of SUV” value ([4]; Cerebral cortex) was 0.81 and the “TRV of SUV” value ([4]; Cerebral cortex) was 16.7. The “ICC of SUV” value ([4]; Hippocampus) was 0.88, the “TRV of SUV” value ([4]; Hippocampus) was 7.7 ± 3.5 and 7.7 and the “ICC of SUV” value ([4]; Hypothalamus) was 0.59. The “TRV of SUV” value ([4]; Hypothalamus) was 20.4 ± 15.4 and 20.4, the “ICC of SUV” value ([4]; Midbrain) was 0.86 and the “TRV of SUV” value ([4]; Midbrain) was 12.3. The “ICC of SUV” value ([4]; Striatum) was 0.69, the “TRV of SUV” value ([4]; Striatum) was 13.6 and the “ICC of SUV” value ([4]; Thalamus) was 0.71. The “TRV of SUV” value ([4]; Thalamus) was 13.7, the “time of maximum total brain uptake (SUV) after injection” value ([4]; non-sampled rats, i.v. bolus) was “around 1 min” and the “affinity for the TSPO” value (TSPO) was “high affinity”. The “specific binding compared with [^11C]PK11195” value (TSPO) was “higher specific binding”, the “metabolism in rats” value ([5]; plasma) was “rapidly metabolized” and the fraction metabolized [5, 7] was “about 60%”. For the same compound, the “parent compound left in plasma” value [5, 7] was 40.7 ± 9.0%, the “parent compound left in plasma” value ([5]; rats, 20 minutes after injection) was 8.2 ± 2.6% and the “parent compound left in plasma” value ([5]; rats, 40 minutes after injection, n = 1) was 3.7%. For the same compound, the “parent compound left in plasma” value ([5]; rats, 60 minutes after injection) was 2.9 ± 1.5%.

In the case of `CCC(C)N([11CH3])C(=O)c1cc2ccccc2c(-c2ccccc2Cl)n1` (centres unmarked) [[^11C]PK11195], the “non-specific binding” value (TSPO) is given as “high level of non-specific binding”.

— PMC4440816, “Positron Emission Tomography studies with [^11C]PBR28 in the Healthy Rodent Brain: Validating SUV as an Outcome Measure of Neuroinflammation” (PLoS ONE, 2015)
